Laboratory results from article PMC3038857, “Using Nuclear Receptor Activity to Stratify Hepatocarcinogens” (PLoS ONE, 2011).
Like-named read-outs stand apart in the source and are kept apart here.

How the values were obtained:
Mouse Liver [1] = conditions: ref ToxRefDB, cited from earlier work
Mouse Liver [2] = conditions: ref ToxRefDB, cited from earlier work; remark: listed apart in the source
Rat Liver [3] = conditions: ref ToxRefDB, cited from earlier work
Rat Liver [4] = conditions: ref ToxRefDB, cited from earlier work; remark: listed apart in the source
Rat Liver [5] = conditions: ref ToxRefDB, cited from earlier work; remark: listed apart in the source
CYP2B6 = assay: CLZD_CYP2B6: Change in expression of CYP2B6 (primary human hepatocytes); type: cell-based; conditions: 24 hr
Protocol: (§1) This is a collection of multiplexed gene expression assays focused on Phase I and II xenobiotic metabolizing enzymes and transporters. Human primary cell cultures were treated with chemicals at 5 concentrations (0.004-40 [drawing 42] M) for 6, 24 and 48 hr. Concentration- and time-response profiles of chemicals were measured by the expression of key nuclear receptor target genes, activities of CYP1A enzymes (EROD), and cell morphology. Fourteen gene targets were monitored by quantitative nuclease protection assay including: six representative cytochrome P-450 genes, four hepatic transporters, three Phase II conjugating enzymes, and one endogenous metabolism gene involved in cholesterol synthesis. The target genes associated with nuclear receptor pathways are as follows: [drawing 43] and [drawing 44] with [drawing 45]; [drawing 46] , [drawing 47] , [drawing 48] , [drawing 49] , [drawing 50] and [drawing 51] with [drawing 52]; [drawing 53] , [drawing 54] , [drawing 55] and [drawing 56] with [drawing 57]; [drawing 58] with [drawing 59]; and [drawing 60] with [drawing 61] . Assays were run in primary human hepatocyte cultures by CellzDirect Invitrogen Inc. (Durham, NC), in collaboration with EPA.
(§2) Multiplexed Gene Expression in Human Primary Hepatocytes: This is a collection of multiplexed gene expression assays focused on Phase I and II metabolic enzymes and transporters. […] Fourteen gene targets were monitored by quantitative nuclease protection assay: six representative cytochrome P450 genes, four hepatic transporters, three Phase II conjugating enzymes, and one endogenous metabolism gene involved in cholesterol synthesis. Cells were exposed at 5 concentrations (0.004-40 µM) for 6, 24 or 48 hr. Gene targets are sentinels for five nuclear receptor signaling pathways: AhR, CAR, PXR, FXR, and PPARα. All gene are associated with nuclear receptor pathways: CYP1A1 and CYP1A2 with AHR; ABCB1, ABCG2, CYP2B6, CYP2C9, CYP2C19 and UGT1A1 with CAR; CYP3A4, GSTA2, SLCO1B1 and SULT2A1 with PXR; HMGCS2 with PPARA; and ABCB11 with FXR. […] Detailed description of the methods, data and analysis methods for this dataset will be presented in a separate publication.

CYP3A4 = assay: CLZD_CYP3A4: Change in expression of CYP3A4 (primary human hepatocytes); type: cell-based; conditions: 24 hr
Protocol: as §1, §2

PXR (NR1I2) [6] = molecular target: T1, PXR (NR1I2) (Homo sapiens, UniProt O75469); assay: ATG_PXRE_CIS: Factorial reporter gene assay (HepG2); type: cell-based; set-up: endogenous in cells; host or cells: HepG2
T1 sequence (O75469 1-434): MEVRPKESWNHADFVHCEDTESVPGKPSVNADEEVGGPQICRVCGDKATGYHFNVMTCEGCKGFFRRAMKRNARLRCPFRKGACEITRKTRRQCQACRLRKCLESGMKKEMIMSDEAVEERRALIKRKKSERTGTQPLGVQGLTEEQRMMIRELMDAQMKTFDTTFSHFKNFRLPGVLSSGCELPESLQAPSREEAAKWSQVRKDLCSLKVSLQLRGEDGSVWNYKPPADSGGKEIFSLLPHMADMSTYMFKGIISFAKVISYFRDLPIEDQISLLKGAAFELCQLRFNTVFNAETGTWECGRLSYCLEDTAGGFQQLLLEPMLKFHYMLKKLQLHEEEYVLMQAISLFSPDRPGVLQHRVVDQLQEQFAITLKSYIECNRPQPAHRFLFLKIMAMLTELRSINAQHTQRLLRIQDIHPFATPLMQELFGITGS
Protocol: (§3) A multiple reporter transcription unit (MRTU) library consisting of 48 transcription factor binding sites was transfected into the HepG2 human liver hepatoma cell line. In addition to the cis-acting reporter genes (CIS), a modification of the approach was used to generate a trans-system (TRANS) with a mammalian one-hybrid assay consisting of an additional 25 MRTU library reporting the activity of nuclear receptor super-family members. […] These assays were performed by Attagene Inc. (Morrisville NC) under contract to EPA.
(§4) In addition to the cis-acting reporter genes (CIS), a modification of the approach was used to generate a trans-system (TRANS) with a mammalian one-hybrid assay consisting of an additional 25 MRTU library reporting the activity of nuclear receptor super-family members. […] Chemicals were then tested in the CIS and TRANS assays at seven concentrations starting at the MTC and followed by three-fold serial dilutions. These assays were performed by Attagene Inc. (Morrisville NC) under contract to EPA. Detailed description of the methods, data and analysis methods for this dataset will be presented in a separate publication.

CYP1A2 = assay: CLZD_CYP1A2: Change in expression of CYP1A2 (primary human hepatocytes); type: cell-based; conditions: 24 hr
Protocol: as §1, §2

PXR (NR1I2) [7] = molecular target: T1, PXR (NR1I2); assay: NVS_NR_hPXR: Human PXR Fluormone PXR (SXR) green (cell-free HTS); type: binding
Description: These are a collection of biochemical assays measuring binding constants and enzyme inhibition values. Chemicals were initially screened at a single concentration in duplicate wells at a concentration of 10 [drawing 63] M for cytochrome P-450 assays and 25 [drawing 64] M for all others. […] These assays were run by Caliper Life Sciences (Hanover, MD) under contract to EPA. Short assay descriptions are available at: http://www.caliperls.com/products/contract-research/in-vitro/.
Cell-free HTS Assays: A collection of biochemical assays measuring binding constants and enzyme inhibition values. […] These assays were run by Caliper Life Sciences (Hanover, MD) under contract to EPA. Short assay descriptions are available at http://www.caliperls.com/products/contract-research/in-vitro/. Values for all endpoints were imported into GeneData Screener (Basel, Switzerland) and normalised to solvent controls from the same plate as the tested compounds and expressed as percent of neutral control. Concentration-response curves were fit in GeneData Screener (Basel, Switzerland) Condeseo module using the Hill equation and AC50 values were determined. […] Detailed description of the methods, data and analysis methods for this dataset are described in a separate publication.

[8] = molecular target: T2, PPARG (peroxisome proliferator-activated receptor gamma) (Homo sapiens, UniProt P37231); assay: ATG_PPARg_TRANS: Factorial reporter gene assay (HepG2); type: cell-based
T2 construct: expressed in transfected cells; host or cells: HepG2
T2 sequence (P37231 1-505): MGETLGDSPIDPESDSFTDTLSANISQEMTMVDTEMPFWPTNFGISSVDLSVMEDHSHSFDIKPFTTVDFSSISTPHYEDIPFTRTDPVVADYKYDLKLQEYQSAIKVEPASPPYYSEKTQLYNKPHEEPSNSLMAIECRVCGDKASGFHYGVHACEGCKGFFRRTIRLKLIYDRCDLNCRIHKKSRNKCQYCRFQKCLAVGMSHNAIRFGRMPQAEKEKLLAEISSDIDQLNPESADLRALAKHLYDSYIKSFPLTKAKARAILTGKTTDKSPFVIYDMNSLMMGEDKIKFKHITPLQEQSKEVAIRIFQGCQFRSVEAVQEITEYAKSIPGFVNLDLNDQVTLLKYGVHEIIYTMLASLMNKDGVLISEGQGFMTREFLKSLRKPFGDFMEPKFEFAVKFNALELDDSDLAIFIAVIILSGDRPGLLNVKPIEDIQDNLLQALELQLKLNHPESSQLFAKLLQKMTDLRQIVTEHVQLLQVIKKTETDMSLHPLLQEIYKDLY
Protocol: as §3, §4

PXR (NR1I2) [9] = molecular target: T1, PXR (NR1I2); assay: ATG_PXR_TRANS: Factorial reporter gene assay (HepG2); type: cell-based; set-up: endogenous in cells; host or cells: HepG2; conditions: HepG2
Protocol: as §3, §4

[10] = mouse chronic study, liver, coded 6 / Inf, code not explained in table
[11] = rat chronic study, liver, coded 6 / 0, code not explained in table

COC(=O)c1c(C(F)F)nc(C(F)(F)F)c(C2=NCCS2)c1CC(C)C [chemical 297]
CHR_Mouse_Liver_1_AnyLesion (Mouse Liver [1]; [10]): 6
CHR_Mouse_Liver_2_PreneoplasticLesion (Mouse Liver [2]; [10]): 6
CHR_Rat_Liver_1_AnyLesion (Rat Liver [3]; [11]): 6
CHR_Rat_Liver_2_PreneoplasticLesion (Rat Liver [4]; [11]): 0
CHR_Rat_Liver_3_NeoplasticLesion (Rat Liver [5]; [11]): 0

O=C(Nc1ccccc1)Nc1cnns1 [chemical 298]
CHR_Mouse_Liver_1_AnyLesion (Mouse Liver [1]; [10]): 6
CHR_Mouse_Liver_2_PreneoplasticLesion (Mouse Liver [2]; [10]): 6
CHR_Rat_Liver_1_AnyLesion (Rat Liver [3]; [11]): 0
CHR_Rat_Liver_2_PreneoplasticLesion (Rat Liver [4]; [11]): 0
CHR_Rat_Liver_3_NeoplasticLesion (Rat Liver [5]; [11]): 0

COc1nc(C)nc(NC(=O)NS(=O)(=O)c2ccccc2OCCCl)n1 [chemical 307]
CHR_Mouse_Liver_1_AnyLesion (Mouse Liver [1]; [10]): 6
CHR_Mouse_Liver_2_PreneoplasticLesion (Mouse Liver [2]; [10]): 6
CHR_Rat_Liver_1_AnyLesion (Rat Liver [3]; [11]): 0
CHR_Rat_Liver_2_PreneoplasticLesion (Rat Liver [4]; [11]): 0
CHR_Rat_Liver_3_NeoplasticLesion (Rat Liver [5]; [11]): 0

CCCOC/C(=N\c1ccc(Cl)cc1C(F)(F)F)n1ccnc1 [chemical 315]
CHR_Mouse_Liver_1_AnyLesion (Mouse Liver [1]; [10]): 6
CHR_Mouse_Liver_2_PreneoplasticLesion (Mouse Liver [2]; [10]): 6
CHR_Rat_Liver_1_AnyLesion (Rat Liver [3]; [11]): 6
CHR_Rat_Liver_2_PreneoplasticLesion (Rat Liver [4]; [11]): 6
CHR_Rat_Liver_3_NeoplasticLesion (Rat Liver [5]; [11]): 0

COc1cnc(OC)n2nc(NS(=O)(=O)c3c(OCC(F)F)cccc3C(F)(F)F)nc12 [r239]
CLZD_CYP2B6_24 (CYP2B6): 4.844
CLZD_CYP3A4_24 (CYP3A4): 4.931
CHR_Rat_Liver_1_AnyLesion (Rat Liver [3]; rat, chronic study): 6
CHR_Rat_Liver_2_PreneoplasticLesion (Rat Liver [4]; rat, chronic study): 0
CHR_Rat_Liver_3_NeoplasticLesion (Rat Liver [5]; rat, chronic study): 0
ATG_PXRE_CIS (PXR (NR1I2) [6]; HepG2): 4.585

Cc1nc(N(C)C)nc(OC(=O)N(C)C)c1C [r247]
CLZD_CYP1A2_24 (CYP1A2): 5.15
CLZD_CYP2B6_24 (CYP2B6): 5.267
ATG_PXRE_CIS (PXR (NR1I2) [6]; HepG2): 4.301

COc1nc(C)nc(NC(=O)NS(=O)(=O)c2ccccc2CCC(F)(F)F)n1 [r266]
CLZD_CYP2B6_24 (CYP2B6): 5.694
CLZD_CYP3A4_24 (CYP3A4): 5.037
CHR_Mouse_Liver_1_AnyLesion (Mouse Liver [1]; chronic study, mouse liver): 6
CHR_Rat_Liver_1_AnyLesion (Rat Liver [3]; chronic study, rat liver): 0
CHR_Rat_Liver_2_PreneoplasticLesion (Rat Liver [4]; chronic study, rat liver): 0
CHR_Rat_Liver_3_NeoplasticLesion (Rat Liver [5]; chronic study, rat liver): 0
ATG_PXRE_CIS (PXR (NR1I2) [6]; HepG2 reporter): 4.377

COc1nc(C)nc(NC(=O)NS(=O)(=O)c2ccccc2CCC(F)(F)F)n1 [r268]
NVS_NR_hPXR (PXR (NR1I2) [7]): 4.469
CHR_Mouse_Liver_1_AnyLesion (Mouse Liver [1]; chronic study, mouse liver): 6
CHR_Rat_Liver_1_AnyLesion (Rat Liver [3]; chronic study, rat liver): 0
CHR_Rat_Liver_2_PreneoplasticLesion (Rat Liver [4]; chronic study, rat liver): 0
CHR_Rat_Liver_3_NeoplasticLesion (Rat Liver [5]; chronic study, rat liver): 0
ATG_PXRE_CIS (PXR (NR1I2) [6]; HepG2 reporter): 4.509

CC(COc1ccc(Oc2ccccc2)cc1)Oc1ccccn1 (centres unmarked) [r274]
ATG_PPARg_TRANS ([8]; HepG2 reporter): 4.42
CLZD_CYP2B6_24 (CYP2B6): 5.377
CLZD_CYP3A4_24 (CYP3A4): 5.096
CHR_Rat_Liver_1_AnyLesion (Rat Liver [3]; chronic study, rat liver): 0
CHR_Rat_Liver_2_PreneoplasticLesion (Rat Liver [4]; chronic study, rat liver): 0
CHR_Rat_Liver_3_NeoplasticLesion (Rat Liver [5]; chronic study, rat liver): 0
ATG_PXRE_CIS (PXR (NR1I2) [6]; HepG2 reporter): 4.886

CCC/C(=N\OCC)C1=C(O)CC(CC(C)SCC)CC1=O (centres unmarked) [r283]
CLZD_CYP2B6_24 (CYP2B6): 5.082
CLZD_CYP3A4_24 (CYP3A4): 4.556
CHR_Mouse_Liver_1_AnyLesion (Mouse Liver [1]; chronic study, mouse liver): 6
CHR_Mouse_Liver_2_PreneoplasticLesion (Mouse Liver [2]; chronic study, mouse liver): 6
CHR_Rat_Liver_1_AnyLesion (Rat Liver [3]; chronic study, rat liver): 6
CHR_Rat_Liver_2_PreneoplasticLesion (Rat Liver [4]; chronic study, rat liver): 6
CHR_Rat_Liver_3_NeoplasticLesion (Rat Liver [5]; chronic study, rat liver): 0
ATG_PXRE_CIS (PXR (NR1I2) [6]; HepG2 reporter): 4.62

N#CSCSC#N [row 206]
CLZD_CYP2B6_24 (CYP2B6): 5.076
NVS_NR_hPXR (PXR (NR1I2) [7]): 5.324
ATG_PXRE_CIS (PXR (NR1I2) [6]; HepG2): 5.699

CSc1nnc(C(C)(C)C)c(=O)n1N [row 209]
CLZD_CYP2B6_24 (CYP2B6): 5.115
CHR_Rat_Liver_1_AnyLesion (Rat Liver [3]; chronic rat study, liver): 0
CHR_Rat_Liver_2_PreneoplasticLesion (Rat Liver [4]; chronic rat study, liver): 0
CHR_Rat_Liver_3_NeoplasticLesion (Rat Liver [5]; chronic rat study, liver): 0

CCSC(=O)N1CCCCCC1 [row 214]
CHR_Rat_Liver_1_AnyLesion (Rat Liver [3]; chronic rat study, liver): 0
CHR_Rat_Liver_2_PreneoplasticLesion (Rat Liver [4]; chronic rat study, liver): 0
CHR_Rat_Liver_3_NeoplasticLesion (Rat Liver [5]; chronic rat study, liver): 0
ATG_PXR_TRANS (PXR (NR1I2) [9]): 4.208
ATG_PXRE_CIS (PXR (NR1I2) [6]; HepG2): 4.602

O=C(Nc1ccc([N+](=O)[O-])cc1Cl)c1cc(Cl)ccc1O [row 220]
ATG_PPARg_TRANS ([8]; HepG2): 6.252
ATG_PXRE_CIS (PXR (NR1I2) [6]; HepG2): 6.367
